This assay has as its system P388. The assay is described as follows: Cytotoxicity against mouse P388 cells. Format: functional, cell-based.

In brackets after ≈: the same amount, converted by molar mass.

Results on four compounds are retold here after ChEMBL document CHEMBL1147388, “Three new cytotoxic metabolites from the marine sponge Plakortis halichondrioides” (J Nat Prod, 1993).

The term IC50 denotes the concentration that gives 50% inhibition. A lower IC50 goes with greater potency in that assay.

Regarding `CC/C=C/C(CC)C/C(=C/C(O)(CC)CC(O)(/C=C/C(=O)O)CC)CC` (centres undefined), half-maximal inhibition (IC50) was put at 10 µg/mL (≈ 27.3 µM).
Then `CC/C=C/C(CC)C/C(C)=C/C(O)(CC)CC(O)(/C=C/C(=O)O)CC` (centres undefined), with 10 µg/mL (≈ 28.4 µM); and `CC/C=C/C(CC)CCCC1(CC)C[C@H](CC)[C@H](CC(=O)O)OO1` (relative stereo), with 0.5 µg/mL (≈ 1.47 µM); and `CC/C=C/C(CC)CCCC1(CC)C[C@H](CC)[C@H](CC(=O)OC)OO1` (relative stereo), with 5 µg/mL (≈ 14.1 µM).
